Assay results from PubChem BioAssay AID1259407 (Chemical Carcinogenesis Research Information System (CCRIS), 2018).
Calls of active or inactive are those of the source. No rule for the calls is given here.

System: CCRIS mutagenicity, Ames/micronucleus/aberration tests
Test: CCRIS mutagenicity studies
[1] = Test System: AMES SALMONELLA TYPHIMURIUM, Strain/Indicator: TA98, Metabolic Activation: NONE, Method: STANDARD PLATE
[2] = Test System: AMES SALMONELLA TYPHIMURIUM, Strain/Indicator: TA100, Metabolic Activation: NONE, Method: STANDARD PLATE
[3] = Test System: AMES SALMONELLA TYPHIMURIUM, Strain/Indicator: TA98, Metabolic Activation: NONE, Method: PREINCUBATION

In the case of `CC(=O)c1oc([N+](=O)[O-])c(Cl)c1Cl`, the mutagenic call [1] is reported as “active; positive”, the mutagenic call (Test System: AMES SALMONELLA TYPHIMURIUM, Strain/Indicator: TA100 (NR), Metabolic Activation: NONE, Method: STANDARD PLATE) is reported as “active; positive” and the mutagenic call [2] is reported as “active; positive”. The mutagenic call (Test System: AMES SALMONELLA TYPHIMURIUM, Strain/Indicator: TA100, Metabolic Activation: NONE, Method: STANDARD PLATE (ANAEROBIC INCUBATION)) was “active; positive”.
`NC1CCCC(N)C1` (stereo not drawn) was tested, and the mutagenic call [3] was “inactive; negative”, the mutagenic call (Test System: AMES SALMONELLA TYPHIMURIUM, Strain/Indicator: TA98, Metabolic Activation: RAT, LIVER, S-9, PCB, Method: PREINCUBATION) was “inactive; negative” and the mutagenic call (Test System: AMES SALMONELLA TYPHIMURIUM, Strain/Indicator: TA100, Metabolic Activation: NONE, Method: PREINCUBATION) was “inactive; negative”. The mutagenic call (Test System: AMES SALMONELLA TYPHIMURIUM, Strain/Indicator: TA100, Metabolic Activation: RAT, LIVER, S-9, PCB, Method: PREINCUBATION) was “inactive; negative”.
With `Nc1nc(N)c(-c2ccccc2)s1` the mutagenic call (Test System: MOUSE LYMPHOMA, Strain/Indicator: L5178Y (TK+/TK-), Metabolic Activation: NONE, Method: SUSPENSION/PLATE) was “active; positive. reevaluation of results: inconclusive” and the mutagenic call (Test System: MOUSE LYMPHOMA, Strain/Indicator: L5178Y (TK+/TK-), Metabolic Activation: RAT, LIVER, S-9, AROCLOR 1254, Method: SUSPENSION/PLATE) was “active; positive. reevaluation of results: inconclusive”.
For `NC(=O)c1cc(N2CC2)c([N+](=O)[O-])cc1[N+](=O)[O-]`, the mutagenic call [1] was “inactive; negative”, the mutagenic call [2] was “active; positive” and the mutagenic call (Test System: E. COLI, Strain/Indicator: NFR-343, Metabolic Activation: NONE, Method: AGAR OVERLAY) was “active; positive”. For the same compound, the mutagenic call (Test System: E. COLI, Strain/Indicator: NFR-343, Metabolic Activation: NONE, Method: STANDARD PLATE) was “active; positive”, the mutagenic call (Test System: E. COLI, Strain/Indicator: NFR-343, Metabolic Activation: RAT, LIVER, S-9, AROCLOR 1254, Method: STANDARD PLATE) was “active; positive” and the mutagenic call (Test System: E. COLI, Strain/Indicator: WP2, Metabolic Activation: NONE, Method: STANDARD PLATE) was “active; positive”. The mutagenic call (Test System: E. COLI, Strain/Indicator: WP2 UVRA (PKM101), Metabolic Activation: NONE, Method: STANDARD PLATE) was “active; positive”, the mutagenic call (Test System: E. COLI, Strain/Indicator: WP2 UVRA, Metabolic Activation: NONE, Method: AGAR OVERLAY) was “active; positive” and the mutagenic call (Test System: E. COLI, Strain/Indicator: WP2 UVRA, Metabolic Activation: NONE, Method: STANDARD PLATE) was “active; positive”. For the same compound, the mutagenic call (Test System: E. COLI, Strain/Indicator: WP2 UVRA, Metabolic Activation: RAT, LIVER, S-9, AROCLOR 1254, Method: STANDARD PLATE) was “active; positive”.
For `O=[N+]([O-])c1cc(-c2ccccc2)cc([N+](=O)[O-])c1O`, the mutagenic call [3] was “active; positive”.
With `CC(=O)Nc1ccc(N/N=C2/C(=O)c3ccc(NC(=O)Nc4ccc5c(c4)C=C(S(=O)(=O)O)/C(=N/Nc4ccccc4)C5=O)cc3C=C2S(=O)(=O)O)cc1` the mutagenic call (Test System: Ames Salmonella typhimurium, Strain/Indicator: TA98, Metabolic Activation: None, Method: Preincubation) was “active; positive”.
`O=C1CCc2c1ccc1c2ccc2ccccc21` was tested, and the mutagenic call (Test System: AMES SALMONELLA TYPHIMURIUM, Strain/Indicator: TA100, Metabolic Activation: RAT, LIVER, MICROSOMES, AROCLOR 1254, Method: STANDARD PLATE) was “active; positive”, the mutagenic call (Test System: AMES SALMONELLA TYPHIMURIUM, Strain/Indicator: TA100, Metabolic Activation: RAT, LIVER, MICROSOMES, BENZO[A]PYRENE, Method: STANDARD PLATE) was “inactive; negative” and the mutagenic call (Test System: AMES SALMONELLA TYPHIMURIUM, Strain/Indicator: TA100, Metabolic Activation: RAT, LIVER, MICROSOMES, CLOFIBRATE, Method: STANDARD PLATE) was “inactive; negative”. For the same compound, the mutagenic call (Test System: AMES SALMONELLA TYPHIMURIUM, Strain/Indicator: TA100, Metabolic Activation: RAT, LIVER, MICROSOMES, DEXAMETHASONE, Method: STANDARD PLATE) was “inactive; negative”, the mutagenic call (Test System: AMES SALMONELLA TYPHIMURIUM, Strain/Indicator: TA100, Metabolic Activation: RAT, LIVER, MICROSOMES, ISONIAZID, Method: STANDARD PLATE) was “inactive; negative” and the mutagenic call (Test System: AMES SALMONELLA TYPHIMURIUM, Strain/Indicator: TA100, Metabolic Activation: RAT, LIVER, MICROSOMES, PHENOBARBITONE, Method: STANDARD PLATE) was “inactive; negative”.
